Legend:
[1] = tested on: lung cancer cell line A549; experiment: DNA microarray gene expression after 5-AZA treatment; assay type: cell-based, human
Description: Cells of lung cancer cell line A549 were treated with 5-AZA (10 μM) for 3 days and the RNAs were extracted. Gene expression levels were measured using DNA microarrays. The criteria for identifying the candidate genes were that the expression level was close to 0 in the non-treated cells and increased by 30 times or more in the 5-AZA-treated cells. Some candidate genes were found, including SYCP3 (untreated: 3.0, 5-AZA treated: 340.9, fold-change: […]), SPESP1 (untreated: 1.7, 5-AZA treated: 65.3, fold-change: […]), and DAZL1 (untreated: 2.8, 5-AZA treated: 341.3, fold-change: 123.6).

[2] = tested on: SYCP3 gene expression in EBC1, Lu65, HT-29, SAS; experiment: SYCP3 gene expression by real-time PCR in 5-AZA-treated cancer cell lines; assay type: cell-based, human; details: 5-AZA 10 μM, 3 days; all tested cell lines (EBC1, Lu65, HT-29, SAS)
Description: (§1) Cells of cancer cell lines (lung cancer cell line EBC1, lung cancer cell line Lu65, colon cancer cell line HT-29, and oral squamous cell carcinoma cell line SAS) were cultured in the complete medium (RPMI 1640 medium (nacalai tesque 30264-56) with 100 U/mL penicillin (Meiji Seika) and […] streptomycin (Meiji Seika), added with 10% fetal bovine serum (biosera FB-1365/500) which had been […] at 56° C. for 30 minutes) containing 5-AZA (10 μM) at the density of 2×10^5 cells/well in 6-well plates (Falcon 353046) in an incubator (SANYO) set at 37° C., 5% CO2, and 95% humidity for 3 days. The same incubator was used for all cell cultures in the following tests. The cells were washed with 2 mL of a phosphate-buffered saline (PBS, KANTO CHEMICAL CO., INC. 73111). The RNAs were extracted with RNeasy Mini Kit (Qiagen 74106), and the cDNAs were synthesized by using PrimeScript 1st strand cDNA Synthesis Kit (Takara Bio 6110A), and the gene expression levels of GAPDH (Applied Biosystems Hs02786624_g1) and SYCP3 (Applied Biosystems Hs00538146_m1) were analyzed by real-time PCR using LightCycler480 (Roche). Each step was carried out in accordance with the description of the package inserts attached to each reagent.

[3] = tested on: SPESP1 gene expression in SW839, 5637, LC2/Ad, EBC1, HT-29, Lu65, SAS; experiment: SPESP1 gene expression by real-time PCR in 5-AZA-treated cancer cell lines; assay type: cell-based, human; details: all tested cell lines
Description: Cells of cancer cell lines (lung cancer cell line EBC1, lung cancer cell line Lu65, colon cancer cell line HT-29, and oral squamous cell carcinoma cell line SAS) were cultured in the complete medium (RPMI 1640 medium (nacalai tesque 30264-56) with 100 U/mL penicillin (Meiji Seika) and 100 μg/L streptomycin (Meiji Seika), added with 10% fetal bovine serum (biosera FB-1365/500) which had been immobilized at 56° C. for 30 minutes) containing 5-AZA (10 μM) at the density of 2×10^5 cells/well in 6-well plates (Falcon 353046) in an incubator (SANYO) set at 37° C., 5% CO2, and 95% humidity for 3 days. […] The RNAs were extracted with RNeasy Mini Kit (Qiagen 74106), and the cDNAs were synthesized by using PrimeScript 1st strand cDNA Synthesis Kit (Takara Bio 6110A), and the gene expression levels of GAPDH (Applied Biosystems Hs02786624_g1) and SYCP3 (Applied Biosystems Hs00538146_m1) were analyzed by real-time PCR using LightCycler480 (Roche). […]
Similarly, cells of renal cancer cell line SW839, bladder cancer cell line 5637, lung adenocarcinoma cell line LC2/Ad, lung cancer cell line EBC1, colon cancer cell line HT-29, lung cancer cell line Lu65, and oral squamous cell carcinoma cell line SAS were cultured in the presence of 5-AZA, and the gene expression levels of GAPDH and SPESP1 (Applied Biosystems Hs00377364_m1) were analyzed.

[4] = tested on: mouse DAZL1 gene expression in WEHI-3; experiment: DAZL1 gene expression by real-time PCR in 5-AZA-treated WEHI-3; assay type: cell-based
Description: as §1, with “Each step was carried out in accordance with the description of the package inserts attached to each reagent.” left out
Similarly, cells of mouse leukemia cell line WEHI-3 (Balb/c) was cultured in the presence of 5-AZA, and the gene expression levels of mouse GAPDH (Applied Biosystems Mm99999915_g1) and mouse DAZL1 (Applied Biosystems Mm01273546_m1) were analyzed.

[5] = tested on: SYCP3 protein in EBC1 and Lu65; experiment: SYCP3 protein by Western blotting; assay type: cell-based, human; details: EBC1 and Lu65 treated with 5-AZA
Description: The amount of SYCP3 protein in EBC1 and Lu65 treated with 5-AZA was analyzed by Western blotting. An anti-SYCP3 antibody (Mouse anti-SCP3, BD Bioscience 611230) diluted at 1:200 was used as the primary antibody. Upregulation of SYCP3 by the 5-AZA treatment was also observed at the protein level.

[6] = tested on: DAZL1 protein in E0771 and C1498; experiment: DAZL1 protein by Western blotting in mouse cancer cell lines; assay type: cell-based; details: 5-AZA 10 μM
Description: Cells of mouse cancer cell lines (E0771:C57BL/6 mouse breast cancer cell line and C1498:C57BL/6 mouse acute myeloid leukemia cell line) were treated with 5-AZA (10 μM), and the amount of DAZL1 protein was analyzed by Western blotting.

[7] = tested on: SYCP3 gene expression in HT-29 or WiDr tumor tissues; experiment: SYCP3 gene expression in tumor tissues of nude mice given 5-AZA; assay type: in vivo, mouse; details: 5-AZA 1.6 μg/g i.p. Days 5, 10, 15, 20; tumors Day 25; vs PBS alone
Description: To the control mice, 200 μL of PBS was intraperitoneally administered.

[8] = tested on: SPESP1 gene expression in EBC1 or Lu65 tumor tissues; experiment: SPESP1 gene expression in tumor tissues of nude mice given 5-AZA; assay type: in vivo, mouse; details: 5-AZA i.p.; tumors Day 25; vs PBS alone
Description: Similarly, nude mice were intradermally injected with cells of lung cancer cell line EBC1 (5×10^5 cells) or Lu65 (5×10^5 cells), and 5-AZA or PBS (control) was intraperitoneally administered. The RNAs were extracted from the tumor tissues collected on Day 25, and the gene expression levels of SPESP1 and GAPDH were analyzed by real-time PCR.

[9] = tested on: lung cancer cell line Lu65; experiment: Tumor growth in nude mice bearing Lu65; assay type: in vivo, mouse; details: BALB/c nude mice, 5-AZA 150 nmol/g i.p. Days 7, 12, 17, 22, Th cells i.v. Days 13, 20, 27
Description: BALB/c nude mice (10 to 14 weeks old, CHARLES RIVER LABORATORIES JAPAN) were intradermally injected with 3×10^6 cells of lung cancer cell line Lu65 using Myjector, and on Days 7, 12, 17, and 22, 200 μL of PBS containing 5-AZA (150 nmol/g of mouse body weight) was intraperitoneally administered using Myjector. To the control mice, 200 μL of PBS was intraperitoneally administered. On Days 13, 20, and 27, 200 μL of SYCP3-specific human Th cells (3 to 5×10^6 cells) were administered by tail vein administration. To the control mice, 200 μL of PBS was administered by tail vein administration. The tumor surface areas were measured over time.

[10] = tested on: DR53-positive cancer cell lines (WiDr, Lu65, and Calu1); details: cancer cells pretreated with 10 μM 5-AZA and 500 U/mL IFN-γ for 3 days; co-culture 24 hours
Description: In order to study the reactivity of SYCP3-A peptide-specific CD4-positive T-cells toward cells of cancer cell lines, DR53-positive cancer cell lines (WiDr, Lu65, and Calu1) were used. The cancer cells were cultured in 6-well culture plates for 3 days using 2 mL of the complete medium containing 10 μM 5-AZA and 500 U/mL IFN-γ (Immunomax-γ for injection 50, Shionogi), which can induce expression of HLA class II molecules on the surfaces of cancer cells. The culture plates were thoroughly washed with PBS, 1 mL of 5 mM EDTA (ethylenediaminetetraacetic acid, nacalai tesque 14347-21) was added to suspend the cells, and the cells were recovered. In the same manner as in Test 8, 1×10^4 cells of each cell line and 5×10^4 CD4-positive T-cells were co-cultured in 96-well flat bottom culture plates using 200 μL of the culture medium for human cells. […] After 24 hours 100 μL of the culture supernatants were collected from each well, and the IFN-γ concentrations were determined using the ELISA kit.

[11] = A549, 5-AZA 10 μM, 3 days, DNA microarray
[12] = A549, 5-AZA treated vs untreated

**Q.** For `Nc1ncn([C@H]2C[C@H](O)[C@@H](CO)O2)c(=O)n1` [5-AZA, 5-aza-2′-deoxycytidine], which “DAZL1 gene expression level, 5-AZA treated” value [1, 11] is on record?
**A.** The value was 341.3.

**Q.** What about the “SPESP1 gene expression level, 5-AZA treated” value [1, 11] of the same compound?
**A.** Its value is 65.3.

**Q.** What about the “SYCP3 gene expression level, 5-AZA treated” value [1, 11] of the same compound?
**A.** Its value is 340.9.

**Q.** What about the DAZL1 fold-change [1, 12] of the same compound?
**A.** The DAZL1 fold-change was 123.6.

**Q.** What about the SPESP1 fold-change [1, 12] of the same compound?
**A.** Its SPESP1 fold-change is 38.8.

**Q.** And the SYCP3 fold-change [1, 12]?
**A.** Its SYCP3 fold-change is 112.3.

**Q.** What about the “SYCP3 gene expression level” value [2] of the same compound?
**A.** Its value is “upregulated”.

**Q.** What about the “SPESP1 gene expression level” value [3] of the same compound?
**A.** The value was “upregulated”.

**Q.** And the “DAZL1 gene expression level” value [4]?
**A.** Its value is “upregulated”.

**Q.** What about the “amount of SYCP3 protein” value [5] of the same compound?
**A.** Its value is “Upregulation”.

**Q.** And the “amount of DAZL1 protein” value [6]?
**A.** The value was “upregulated”.

**Q.** What about the “SYCP3 gene expression in tumor tissues” value [7] of the same compound?
**A.** Its value is “upregulated”.

**Q.** What about the “SPESP1 gene expression in tumor tissues” value [8] of the same compound?
**A.** The value was “upregulated”.

**Q.** And the “tumor growth (tumor surface area)” value [9]?
**A.** Its value is “No effect”.

**Q.** And the “IFN-γ production of SYCP3-A-specific CD4-positive T-cells toward cancer cells” value [10]?
**A.** Its value is “increased the IFN-γ production”.
